Assays:
NLRP3 [1] = molecular target: T1, NLRP3 (Homo sapiens, UniProt Q96P20); test: THP-1 cells pyroptosis assay; type: cell-based; design: Seed THP-1 cells (25,000 cells/well) containing 1.0 μg/ml LPS; host or cells: THP-1 cells, LPS-primed, nigericin-stimulated; settings: 1.0 μg/ml LPS, nigericin 5 μM, resazurin readout
Procedure: The cells were routinely passaged and grown to confluency (˜10^6 cells/ml). On the day of the experiment, THP-1 cells were harvested and resuspended into RPMI medium (without FBS). […] To this diluted cell solution was added LPS (Sigma #L4524) to give a 1 μg/ml Final Assay Concentration (FAC). 40 μl of the final preparation was aliquoted into each well of a 96-well plate. The plate thus prepared was used for compound screening.
The following method step-by-step assay was followed for compound screening. • 1. […] Incubate for 3 hrs at 37° C., 5% CO2 • 4. Add 5 μl nigericin (Sigma #N7143) (FAC 5 μM) to all wells • 5. Incubate for 1 hr at 37° C., 5% CO2 • 6. At the end of the incubation period, spin plates at 300×g for 3 mins and remove supernatant • 7. Then add 50 μl of resazurin (Sigma #R7017) (FAC 100 μM resazurin in RPMI medium without FBS) and incubate plates for a further 1-2 hrs at 37° C. and 5% CO2 • 8. […] IC50 data is fitted to a non-linear regression equation (log inhibitor vs response-variable slope 4-parameters)

NLRP3 [2] = molecular target: T1, NLRP3; test: Human whole blood IL-1β release assay; type: cell-based; design: Human whole blood in Li-heparin tubes was obtained from healthy donors; from tissue; host or cells: human whole blood from healthy donors, LPS-primed, nigericin-stimulated; settings: 1 μg/ml LPS, nigericin 10 μM, IL-1β by AlphaLisa
Procedure: For systemic delivery, the ability to inhibit NLRP3 when the compounds are present within the bloodstream is of great importance. For this reason, the NLRP3 inhibitory activity of a number of compounds in human whole blood was investigated in accordance with the following protocol.
Human whole blood in Li-heparin tubes was obtained from healthy donors from a volunteer donor panel. • 1. […] Incubate for 3 hrs at 37° C., 5% CO2 • 4. Add 10 μl nigericin (Sigma #N7143) (10 μM FAC) to all wells • 5. Incubate for 1 hr at 37° C., 5% CO2 • 6. At the end of the incubation period, spin plates at 300×g for 5 mins to pellet cells and remove 20 μl of supernatant and add to 96-well v-bottom plates for IL-1β analysis (note: these plates containing the supernatants can be stored at −80° C. to be analysed at a later date) • 7. IL-1β was measured according to the manufacturer protocol (Perkin Elmer-AlphaLisa IL-1 Kit AL220F-5000) • 8. IC50 data is fitted to a non-linear regression equation (log inhibitor vs response-variable slope 4-parameters)

T1 sequence (Q96P20 whole entry): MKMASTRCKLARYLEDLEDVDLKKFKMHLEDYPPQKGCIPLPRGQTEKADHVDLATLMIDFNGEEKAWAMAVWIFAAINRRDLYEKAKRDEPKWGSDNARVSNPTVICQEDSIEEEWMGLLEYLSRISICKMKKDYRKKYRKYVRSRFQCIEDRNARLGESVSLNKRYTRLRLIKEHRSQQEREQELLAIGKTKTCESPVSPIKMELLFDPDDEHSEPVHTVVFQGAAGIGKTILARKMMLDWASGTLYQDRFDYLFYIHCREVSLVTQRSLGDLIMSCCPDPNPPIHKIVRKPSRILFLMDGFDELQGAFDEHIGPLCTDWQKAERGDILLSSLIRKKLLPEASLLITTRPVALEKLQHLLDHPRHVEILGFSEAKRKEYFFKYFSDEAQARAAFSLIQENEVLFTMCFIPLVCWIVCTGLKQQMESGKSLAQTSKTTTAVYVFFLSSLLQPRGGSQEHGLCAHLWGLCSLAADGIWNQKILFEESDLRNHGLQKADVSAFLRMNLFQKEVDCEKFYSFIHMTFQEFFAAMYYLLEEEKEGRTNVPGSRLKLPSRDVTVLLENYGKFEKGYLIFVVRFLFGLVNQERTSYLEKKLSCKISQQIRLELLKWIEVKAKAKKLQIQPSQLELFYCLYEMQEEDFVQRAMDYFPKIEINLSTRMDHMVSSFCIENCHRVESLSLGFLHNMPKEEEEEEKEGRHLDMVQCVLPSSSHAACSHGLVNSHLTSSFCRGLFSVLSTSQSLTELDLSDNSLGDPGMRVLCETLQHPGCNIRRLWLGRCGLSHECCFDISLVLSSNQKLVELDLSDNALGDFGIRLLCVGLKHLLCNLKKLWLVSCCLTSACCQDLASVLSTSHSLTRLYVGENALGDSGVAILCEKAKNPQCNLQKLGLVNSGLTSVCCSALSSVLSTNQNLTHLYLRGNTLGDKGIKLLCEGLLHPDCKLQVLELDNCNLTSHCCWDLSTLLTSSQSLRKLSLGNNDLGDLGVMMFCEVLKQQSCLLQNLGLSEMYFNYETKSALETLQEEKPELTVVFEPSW

Structure (SMILES) | IC50 (NLRP3 [1]) [nM] | IC50 (NLRP3 [2]) [nM]
CCN1CCC[C@@H](Nc2nnc(-c3c(C)cc(C(F)(F)F)cc3O)n(C)c2=O)C1 (single isomer, unassigned) [Example 29, (M or P)-6-[[(3R)-1-ethyl-3-piperidyl]amino]-3-[2-hydroxy-6-methyl-4-(trifluoromethyl)phenyl]-4-methyl-1,2,4-triazin-5-one] | 7.8 | 
CCN1CCC[C@@H](Nc2nnc(-c3c(C)cc(C(F)(F)F)cc3O)n(C)c2=O)C1 (single isomer, unassigned) [Example 30, (P or M)-6-[[(3R)-1-ethyl-3-piperidyl]amino]-3-[2-hydroxy-6-methyl-4-(trifluoromethyl)phenyl]-4-methyl-1,2,4-triazin-5-one] | 751 | 
Cn1c(-c2ccc(C(F)(F)F)cc2O)nnc(N[C@@H]2CCCNC2)c1=O [Example 3, 3-[2-Hydroxy-4-(trifluoromethyl)phenyl]-4-methyl-6-[[(3R)-3-piperidyl]amino]-1,2,4-triazin-5-one;2,2,2-trifluoroacetic Acid] | 170 | 
CN1C2CCC(Nc3nnc(-c4ccc(C(F)(F)F)cc4O)n(C)c3=O)C1CC2 (stereo not drawn) [Example 4, 3-[2-Hydroxy-4-(trifluoromethyl)phenyl]-4-methyl-6-[(8-methyl-8-azabicyclo[3.2.1]octan-2-yl)amino]-1,2,4-triazin-5-one;2,2,2-trifluoroacetic Acid] | 96 | 120
Cn1c(-c2ccc(C(F)(F)F)cc2O)nnc(N[C@@H]2CCCN(CC3CC3)C2)c1=O [Example 5, (R)-6-((1-(Cyclopropylmethyl)piperidin-3-yl)amino)-3-(2-hydroxy-4-(trifluoromethyl)phenyl)-4-methyl-1,2,4-triazin-5(4H)-one;2,2,2-trifluoroacetic Acid] | 88 | 92
CN1CCC[C@@H](Nc2nnc(-c3ccc(C(F)(F)F)cc3O)n(C)c2=O)C1 [Example 6, (R)-3-(2-Hydroxy-4-(trifluoromethyl)phenyl)-4-methyl-6-((1-methylpiperidin-3-yl)amino)-1,2,4-triazin-5(4H)-one;2,2,2-trifluoroacetic Acid] | 24 | 15
Cn1c(-c2ccc(C(F)(F)F)cc2O)nnc(NC2CCCN3CCCC23)c1=O (stereo not drawn) [Example 7, 6-(1,2,3,5,6,7,8,8a-Octahydroindolizin-8-ylamino)-3-[2-hydroxy-4-(trifluoromethyl)phenyl]-4-methyl-1,2,4-triazin-5-one;2,2,2-trifluoroacetic Acid] | 51 | 86
CCCN1CCC[C@@H](Nc2nnc(-c3ccc(C(F)(F)F)cc3O)n(C)c2=O)C1 [Example 8, 3-[2-Hydroxy-4-(trifluoromethyl)phenyl]-4-methyl-6-[[(3R)-1-propyl-3-piperidyl]amino]-1,2,4-triazin-5-one;2,2,2-trifluoroacetic Acid] | 53 | 32
CN1CC(Nc2nnc(-c3ccc(C(F)(F)F)cc3O)n(C)c2=O)CC(C)(C)C1 (stereo not drawn) [Example 9, 3-[2-Hydroxy-4-(trifluoromethyl)phenyl]-4-methyl-6-[(1,5,5-trimethyl-3-piperidyl)amino]-1,2,4-triazin-5-one;2,2,2-trifluoroacetic Acid] | 868 | 
Cn1c(-c2ccc(C(F)(F)F)cc2O)nnc(N[C@H]2C[C@@](C)(O)C2)c1=O [Example 11, 6-(((1S,3S)-3-Hydroxy-3-methylcyclobutyl)amino)-3-(2-hydroxy-4-(trifluoromethyl)phenyl)-4-methyl-1,2,4-triazin-5(4H)-one] | 391 | 190
Cn1c(-c2ccc(C(F)(F)F)cc2O)nnc(NC2CC3CNC2C3)c1=O (stereo not drawn) [Example 13, 6-(2-Azabicyclo[2.2.1]heptan-6-ylamino)-3-[2-hydroxy-4-(trifluoromethyl)phenyl]-4-methyl-1,2,4-triazin-5-one;2,2,2-trifluoroacetic Acid] | > 1000 | 
CCN1C[C@@H](C)C[C@@H](Nc2nnc(-c3ccc(C(F)(F)F)cc3O)n(C)c2=O)C1 [Example 14, 6-[[(3R,5S)-1-Ethyl-5-methyl-3-piperidyl]amino]-3-[2-hydroxy-4-(trifluoromethyl)phenyl]-4-methyl-1,2,4-triazin-5-one;2,2,2-trifluoroacetic Acid] | 765 | 
CCN1C[C@H](C)C[C@@H](Nc2nnc(-c3ccc(C(F)(F)F)cc3O)n(C)c2=O)C1 [Example 15, 6-[[(3R,5R)-1-Ethyl-5-methyl-3-piperidyl]amino]-3-[2-hydroxy-4-(trifluoromethyl)phenyl]-4-methyl-1,2,4-triazin-5-one;2,2,2-trifluoroacetic Acid] | > 1000 | 
CN1CC(Nc2nnc(-c3ccc(C(F)(F)F)cc3O)n(C)c2=O)C[C@H](F)C1 (stereo partly drawn) [Example 16, 6-[[(5S)-5-fluoro-1-methyl-3-piperidyl]amino]-3-[2-hydroxy-4-(trifluoromethyl)phenyl]-4-methyl-1,2,4-triazin-5-one;2,2,2-trifluoroacetic Acid] | 860 | 
Cn1c(-c2ccc(C(F)(F)F)cc2O)nnc(N[C@@H]2CCC(C)(C)NC2)c1=O [Example 17, 6-[[(3R)-6,6-Dimethyl-3-piperidyl]amino]-3-[2-hydroxy-4-(trifluoromethyl)phenyl]-4-methyl-1,2,4-triazin-5-one;2,2,2-trifluoroacetic Acid] | 683 | 
Cn1c(-c2ccc(C(F)(F)F)cc2O)nnc(NCc2cccc(O)c2)c1=O [Example 18, 6-[(3-Hydroxyphenyl)methylamino]-3-[2-hydroxy-4-(trifluoromethyl)phenyl]-4-methyl-1,2,4-triazin-5-one;2,2,2-trifluoroacetic Acid] | 1.2 | 8.1
CCN1CCC[C@@H](Nc2nnc(-c3ccc(C(F)(F)F)cc3O)n(C3CC3)c2=O)C1 [Example 20, 4-Cyclopropyl-6-[[(3R)-1-ethyl-3-piperidyl]amino]-3-[2-hydroxy-4-(trifluoromethyl)phenyl]-1,2,4-triazin-5-one;2,2,2-trifluoroacetic Acid] | 726 | 
CCN1CCC[C@@H](Nc2nnc(-c3ccc(C(F)(F)F)cc3O)n(CC)c2=O)C1 [Example 22, 4-Ethyl-6-[[(3R)-1-ethyl-3-piperidyl]amino]-3-[2-hydroxy-4-(trifluoromethyl)phenyl]-1,2,4-triazin-5-one] | 94 | 48
CCN1CCC[C@@H](Nc2nnc(-c3ccc(OC(F)F)cc3O)n(C)c2=O)C1 [Example 23, 3-[4-(Difluoromethoxy)-2-hydroxy-phenyl]-6-[[(3R)-1-ethyl-3-piperidyl]amino]-4-methyl-1,2,4-triazin-5-one; Formic Acid] | 8.1 | 6.5
CN1CCC[C@@H](Nc2nnc(-c3ccc(C(F)(F)F)cc3O)n(C)c2=O)C1 [Example 26, 3-[2-hydroxy-4-(trifluoromethyl)phenyl]-4-methyl-6-[[(3R)-1-methyl-3-piperidyl]amino]-1,2,4-triazin-5-one] | 10.3 | 
CCN1CCC[C@@H](Nc2nnc(-c3ccc(S(F)(F)(F)(F)F)cc3O)n(C)c2=O)C1 [Example 31, 6-[[(3R)-1-Ethyl-3-piperidyl]amino]-3-[2-hydroxy-4-(pentafluoro-λ6-sulfanyl)phenyl]-4-methyl-1,2,4-triazin-5-one] | 115 | 
CCN1CCC[C@@H](Nc2nnc(-c3ccc(C#N)cc3O)n(C)c2=O)C1 [Example 32, 4-[6-[[(3R)-1-Ethyl-3-piperidyl]amino]-4-methyl-5-oxo-1,2,4-triazin-3-yl]-3-hydroxy-benzonitrile; formic acid] | 809 | 
CCN1CCC[C@@H](Nc2nnc(-c3ccc(C(F)(F)F)cc3O)[nH]c2=O)C1 [Example 35, 6-[[(3R)-1-Ethyl-3-piperidyl]amino]-3-[2-hydroxy-4-(trifluoromethyl)phenyl]-4H-1,2,4-triazin-5-one;2,2,2-trifluoroacetic Acid] | 459 | 
CN1C[C@@H](F)C[C@@H](Nc2nnc(-c3ccc(C(F)(F)F)cc3O)[nH]c2=O)C1 [Example 36, 6-[[(3R,5S)-1-Methyl-5-fluoro-3-piperidyl]amino]-3-[2-hydroxy-4-(trifluoromethyl)phenyl]-4H-1,2,4-triazin-5-one;2,2,2-trifluoroacetic Acid] | > 1000 | 

Reference: US20240208928A1, “NOVEL COMPOUNDS” (Hoffmann-La Roche Inc., priority 2021, published 2024)
